Assay results taken from article PMC6017115, “Inhibitory Effect of Sauchinone on UDP-Glucuronosyltransferase (UGT) 2B7 Activity” (Molecules : A Journal of Synthetic Chemistry and Natural …, 2018).

Target: T1, UGT2B7 (Homo sapiens, UniProt P16662)
T1 sequence (P16662 24-529): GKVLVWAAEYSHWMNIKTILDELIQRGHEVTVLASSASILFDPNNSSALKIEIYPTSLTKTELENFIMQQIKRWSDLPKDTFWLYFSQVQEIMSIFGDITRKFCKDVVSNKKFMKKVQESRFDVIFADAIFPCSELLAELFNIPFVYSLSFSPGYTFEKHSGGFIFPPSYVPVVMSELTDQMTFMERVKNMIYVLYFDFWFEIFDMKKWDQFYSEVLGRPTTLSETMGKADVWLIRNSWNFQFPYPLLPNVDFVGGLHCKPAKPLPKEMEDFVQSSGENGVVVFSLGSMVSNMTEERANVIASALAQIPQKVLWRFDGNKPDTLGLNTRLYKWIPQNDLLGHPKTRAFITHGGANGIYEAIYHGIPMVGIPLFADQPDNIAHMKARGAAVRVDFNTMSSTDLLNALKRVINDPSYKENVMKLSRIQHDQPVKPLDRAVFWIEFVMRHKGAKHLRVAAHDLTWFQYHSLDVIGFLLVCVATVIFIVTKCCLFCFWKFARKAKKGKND
Assay: Inhibition of UGT2B7 (zidovudine glucuronidation) in human liver microsomes
Type: in vitro ADME
Parameters: tissue Corning Life Sciences 452156; host or cells: pooled human liver microsomes
Description: Their IC50 values were compared to that of sauchinone. […] UGT-mediated activities in the presence of sauchinone as an inhibitor were expressed as percentages of corresponding control values (in absence of sauchinone). From percentages of control activity versus inhibitor concentrations, a sigmoid shaped curve was fitted to the data and IC50 as an enzyme inhibition parameter was calculated by fitting the Hill equation to the data using GraphPad Prism 5 (GraphPad Software Inc., San Diego, CA, USA).

`O=C1Nc2ccc(Cl)cc2[C@@](C#CC2CC2)(C(F)(F)F)O1` [Efavirenz] gave an IC50 of 75.4 µM.
